Values of other authors, collected in patent publication US4178376A, “Method for inducing rapid therapeutically effective antimalarial levels of certain selected conventional antimalarials” (Interx Research Corporation, priority 1977, dated 1979).

Settings: water

Row | SMILES | aqueous solubility
1 | CCCCN(CCCC)CCC(O)c1cc(-c2ccc(C(F)(F)F)cc2)nc(-c2ccc(C(F)(F)F)cc2)c1 (centres unmarked) [3-Dibutylamino-1-[2,6-bis(4-trifluoromethylphenyl)-4-pyridyl] propanol] | approximately 7.0 mg per liter of water
2 | CCCCN(CCCC)CC(O)c1cc(-c2ccc(Cl)c(Cl)c2)nc2c(Cl)cc(Cl)cc12 (centres unmarked) [Compound I] | approximately 1.0 mg per liter of water
